Reference: patent US20100138957A1 (priority 2007, published 2010)

Tested on: Xylella fastidiosa
Conditions: in vivo

Q: Which PD resistance index does the source give for “MAKWKLFKKIGIGFKKAAHVGKAALTK [B-passerin]” here?
A: higher than that of tolerant control plants

Q: What about the “resistance to X. fastidiosa conferred in transgenic grape plants” value of the same sequence?
A: significantly higher level of resistance
